Laboratory results reported in the NIST ThermoML archive (doi:10.1016/j.jct.2016.02.001).

Assay: mn = molality of the nth substance listed, in mol/kg
Conditions: for surface tension liquid-gas: Maximal bubble pressure; for mass density: 100 kPa, Liquid, Vibrating tube method

CC(=O)[O-].CCCCCCn1cc[n+](C)c1 [3-hexyl-1-methylimidazolium acetate] + O
Conditions	mass density [kg/m3]	surface tension liquid-gas [mN/m]
288.15 K, m1 = 0.0117	1000.09	73
288.15 K, m1 = 0.0162	1000.19	72.9
288.15 K, m1 = 0.0285	1000.4	72.7
288.15 K, m1 = 0.044	1000.58	72.2
288.15 K, m1 = 0.1102	1001.44	70.4
288.15 K, m1 = 0.1674	1002.13	68.9
288.15 K, m1 = 0.2233	1002.92	67.6
288.15 K, m1 = 0.2797	1003.61	66.3
288.15 K, m1 = 0.3357	1004.39	65.1
288.15 K, m1 = 0.3914	1005.11	63.7
288.15 K, m1 = 0.4475	1005.8	62.4
288.15 K, m1 = 0.5029	1006.52	61.4
293.15 K, m1 = 0.0117	999.03	72.3
293.15 K, m1 = 0.0162	999.15	72.2
293.15 K, m1 = 0.0285	999.32	71.9
293.15 K, m1 = 0.044	999.53	71.3
293.15 K, m1 = 0.1102	1000.29	69.6
293.15 K, m1 = 0.1674	1000.95	68.2
293.15 K, m1 = 0.2233	1001.64	67
293.15 K, m1 = 0.2797	1002.33	65.6
293.15 K, m1 = 0.3357	1003	64.4
293.15 K, m1 = 0.3914	1003.71	63
293.15 K, m1 = 0.4475	1004.46	61.7
293.15 K, m1 = 0.5029	1005.19	60.7
298.15 K, m1 = 0.0117	997.74	71.6
298.15 K, m1 = 0.0162	997.89	71.4
298.15 K, m1 = 0.0285	998.01	71.1
298.15 K, m1 = 0.044	998.25	70.6
298.15 K, m1 = 0.1102	998.91	69
298.15 K, m1 = 0.1674	999.59	67.5
298.15 K, m1 = 0.2233	1000.3	66.2
298.15 K, m1 = 0.2797	1001	64.8
298.15 K, m1 = 0.3357	1001.66	63.7
298.15 K, m1 = 0.3914	1002.34	62.4
298.15 K, m1 = 0.4475	1003.01	61.1
298.15 K, m1 = 0.5029	1003.64	60.2
303.15 K, m1 = 0.0117	996.24	70.7
303.15 K, m1 = 0.0162	996.35	70.6
303.15 K, m1 = 0.0285	996.49	70.3
303.15 K, m1 = 0.044	996.69	69.7
303.15 K, m1 = 0.1102	997.44	68.1
303.15 K, m1 = 0.1674	998.06	66.8
303.15 K, m1 = 0.2233	998.79	65.6
303.15 K, m1 = 0.2797	999.48	64.1
303.15 K, m1 = 0.3357	1000.14	62.9
303.15 K, m1 = 0.3914	1000.78	61.7
303.15 K, m1 = 0.4475	1001.42	60.5
303.15 K, m1 = 0.5029	1002.04	59.6
308.15 K, m1 = 0.0117	994.58	69.8
308.15 K, m1 = 0.0162	994.69	69.7
308.15 K, m1 = 0.0285	994.81	69.4
308.15 K, m1 = 0.044	994.99	68.9
308.15 K, m1 = 0.1102	995.81	67.5
308.15 K, m1 = 0.1674	996.43	65.9
308.15 K, m1 = 0.2233	997.08	64.7
308.15 K, m1 = 0.2797	997.72	63.4
308.15 K, m1 = 0.3357	998.39	62.2
308.15 K, m1 = 0.3914	999.02	61.1
308.15 K, m1 = 0.4475	999.65	59.9
308.15 K, m1 = 0.5029	1000.24	58.9
313.15 K, m1 = 0.0117	992.75	69
313.15 K, m1 = 0.0162	992.83	68.9
313.15 K, m1 = 0.0285	992.94	68.7
313.15 K, m1 = 0.044	993.11	68.2
313.15 K, m1 = 0.1102	993.86	66.6
313.15 K, m1 = 0.1674	994.56	65.3
313.15 K, m1 = 0.2233	995.21	64.1
313.15 K, m1 = 0.2797	995.84	62.8
313.15 K, m1 = 0.3357	996.49	61.7
313.15 K, m1 = 0.3914	997.12	60.5
313.15 K, m1 = 0.4475	997.73	59.2
313.15 K, m1 = 0.5029	998.32	58.2
318.15 K, m1 = 0.0117	990.75	68.2
318.15 K, m1 = 0.0162	990.81	68.1
318.15 K, m1 = 0.0285	990.95	67.9
318.15 K, m1 = 0.044	991.1	67.4
318.15 K, m1 = 0.1102	991.84	65.8
318.15 K, m1 = 0.1674	992.43	64.4
318.15 K, m1 = 0.2233	993.11	63.3
318.15 K, m1 = 0.2797	993.76	62.1
318.15 K, m1 = 0.3357	994.39	61
318.15 K, m1 = 0.3914	995	59.7
318.15 K, m1 = 0.4475	995.59	58.5
318.15 K, m1 = 0.5029	996.16	57.7
